Data taken from US20260158103A1, “USE OF CYCLOSPORINE ANALOGUES AS ANTITHROMBOTIC AGENTS” (Hepion Pharmaceuticals, Inc., priority 2020, published 2026).
“Also recorded” adds a separate entry of the source. Where a SMILES comes first, the peptide text is derived from it. [ ]: non-standard residue; d: D form. NMeThr(4R-Me,4-(CH2)6NHAc) = CN[C@H](C(=O)O)[C@H](O)[C@H](C)CCCCCCNC(C)=O; NMeL = CN[C@@H](CC(C)C)C(=O)O; NMeV = CN[C@H](C(=O)O)C(C)C; dNMeA = CN[C@H](C)C(=O)O; Abu = CC[C@H](N)C(=O)O

Columns and labels:
[1] = system: human procoagulant platelet formation (platelet PS exposure); experiment: Procoagulant platelet formation (annexin-V-FITC binding to exposed phosphatidylserine, flow cytometry); type: cell-based
Method: (§1) Platelet isolation. Blood (40 ml) was obtained from healthy volunteers who had not taken any drugs known to affect platelet function for 2 weeks prior to the study. Prostacyclin-washed platelet suspensions (2.5×10^8/ml) were prepared in Tyrode's buffer.
Procoagulant platelet formation studies. […] Procoagulant platelet formation was assessed by measuring annexin-V-FITC binding to exposed phosphatidylserine (PS) by flow cytometry as described previously. Flow cytometry was performed utilizing a BD Fortessa X20 flow cytometer equipped with a blue (488 nm) laser and […] band pass filters to detect FITC. Percent PS-positive platelets were determined post-acquisition using FlowJo software.
(§2) Statistics. Statistical analysis was performed using GraphPad Prism 7.0 software. All means are reported with SEM. One-way ANOVA with Dunnet's multiple comparisons test was performed for aggregation studies, and a Repeated-measures One-way ANOVA with Dunnet's multiple comparisons test was performed for procoagulant platelet formation studies. Each N represents an experiment from an independent blood donor. A P-value less than 0.05 was considered significant.

[2] = system: human platelet aggregation; experiment: Platelet aggregometry (washed platelets, lumi-aggregometer, % Light Transmittance); type: cell-based
Method: as §1
Platelet aggregometry. Washed platelets (500 μl/test) were pre-incubated (2 minutes at 37° C.) in a lumi-aggregometer (Chronolog, Havertown, PA, USA) with either vehicle (0.1% DMSO) or CRV431 (0.01-3 μM). Platelet aggregation was then initiated with collagen (1 μg/mL) or thrombin (0.1 U/mL) (Chronolog) and monitored by Aggro-Link software for a further 6 minutes. Extent of platelet aggregation was measured as % Light Transmittance between minutes 2 and 6 and determined by Aggro-Link Software.
as §2

| Compound | inhibition of platelet PS-exposure, a marker of procoagulant platelet formation ([1]; CRV431 at 1 and 3 μM, activated by collagen and thrombin, N=8, P<0.01 / P<0.001 vs. vehicle control) | percentage of phosphatidylserine (PS)-positive platelets ([1]; increasing concentrations of CRV431, induced by collagen (10 μg/ml) and thrombin (0.1 U/ml), flow cytometry) | inhibition of platelet aggregation induced by collagen ([2]; collagen 1 μg/mL, CRV431 0.01-3 μM, washed human platelets, N=10, P>0.05) | inhibition of platelet aggregation at the highest concentration tested ([2]; single blood donor (FIG. 3A), highest concentration tested) | inhibition of platelet aggregation induced by thrombin ([2]; thrombin 0.1 U/mL, CRV431 0.01-3 μM, washed human platelets, N=9, P>0.05) | inhibition of platelet aggregation (positive control) ([2]; single blood donor (FIG. 3B), agonist and concentration not given) |
| --- | --- | --- | --- | --- | --- | --- |
| CC[C@@H]1NC(=O)[C@H]([C@H](O)[C@H](C)CCCCCCNC(C)=O)N(C)C(=O)[C@H](C(C)C)N(C)C(=O)[C@H](CC(C)C)N(C)C(=O)[C@H](CC(C)C)N(C)C(=O)[C@@H](C)NC(=O)[C@H](C)NC(=O)[C@H](CC(C)C)N(C)C(=O)[C@H](C(C)C)NC(=O)[C@H](CC(C)C)N(C)C(=O)[C@@H](C)N(C)C1=O [CRV431] (cyclo(A[dA][NMeL][NMeL][NMeV][NMeThr(4R-Me,4-(CH2)6NHAc)][Abu][dNMeA][NMeL]V[NMeL])) | significantly inhibited platelet PS-exposure | reduce the percentage of phosphatidylserine (PS)-positive platelets | did not inhibit platelet aggregation | does not inhibit platelet aggregation | did not inhibit platelet aggregation | – |
| CC(=O)Oc1ccccc1C(=O)O [acetylsalicylic acid, reference compound] | – | – | – | – | – | effectively inhibited aggregation; also recorded: platelet aggregation is inhibited |
